Results reported in patent publication US20200270216A1, “COMPOSITIONS AND METHODS FOR INHIBITING N-SMASE2” (The Regents of the University of California, priority 2017, published 2020).
pEC50: −log10 of the molar value. “Also recorded” adds a separate entry of the source.

Columns and labels:
Format in all cases: cell-based
[1] = system: HEK293T Tau RD P301S FRET biosensor cells; assay: D+R functional assay: tau seed transfer from P2-seeded donor cells to DiD-labeled recipient cells
Procedure: The compounds disclosed herein were further evaluated in the functional assays (“D+R approach”). The assays were based on the use of two cell populations—donor cells (D) and recipient cells (R). Recipients express a specific signal upon accumulation of protein aggregates (for example, FRET signal). The D+R approach can be divided into four steps (FIG. 4A).
In step 1, donor and recipient cells were plated in separation and protein aggregation is induced in the donor cells by using tissue-derived or synthetic proteopathic seeds (“seeding”) or by chemical and/or genetic methods. In step 2, either donor cells or recipient cells were labeled with a lipophilic dye (or by other cell labeling technology) in order to be able to distinguish between donor and recipients cells after trypsinization and re-plating of the donor and recipient cells together in step 3 (R+D). Alternatively, donor and recipient cells were physically divided by a permeable support (for example, Transwell). In any scenario, the cells were connected through the media and they grow for 24-60 hours with or without addition of pre-selected compounds. Efficiency of proteopathic seed transmission from donor cells to recipient cells can be analyzed using microscopy, flow cytometry, or imaging flow cytometry. […] Treatment of the tau biosensor cells with tau seeds lead to RD aggregation, as a result, CFP and YFP molecules come into close proximity and a FRET signal can be generated in the CFP/YFP pair upon illumination. The far-red fluorescent, lipophilic carbocyanine dye, DiD, was used for labeling recipient cells. This dye allowed for distinguishing between the DiD-negative donor and the DiD positive recipient cells without interference with the CFP/YFP FRET signal. The representative images of DiD-negative FRETpositive donor cell seeded with P2-derived tau seeds), DiD-positive FRET-negative recipient cell (DiD-R), and DiD positive FRET-positive recipient cell, which were growing in the presence of P2-D (DiD-R/R+D) are presented at the FIG. 4B. […]

[2] = system: HEK293T Tau RD P301S FRET biosensors; assay: P2-induced tau aggregation in Tau P301S FRET biosensors (microscopy, flow cytometry)
Source text: The tau biosensors were HEK293T cells, with stably expressed tau repeat domains with disease-associated mutation (P301S) fused to either CFP or YFP (HEK293T Tau RD P301S FRET biosensors) were transduced with pulled synaptosomal (P2) extracts from AD brains using lipofectamine 2000. Cultures treated with equal amount of empty liposomes were used as a control. […] Cells were imaged after 24 hrs using automated microscope imaging system (Lionheart FX) equipped with 20× objective and CFP-YFP FRET Image filter cube.
After sixty hours treatment, cells and cell medium were collected. Cells were prepared for flow cytometry and FRET signal was detected using LSRII flow cytometer (BD biosciences). Cells were back gated onto forward scatter versus side scatter to insure a single cell analysis, 5,000 cells were collected within the gate. FRET negative and FRET-positive cell populations were defined as previously described.

[3] = system: P2-seeded tau biosensor cells; assay: EV purification and characterization (immunoblot of exosome markers, nanoparticle tracking analysis)
Source text: Extracellular vesicles (EVs) were purified from the cell culture medium using Exo-Quick-TC exosome purification kit (SBI, EXOTC10A-1) according to the manufacturing instructions. Immunoblot analysis of the EV fractions was done by 10-20% Tris-Glycine gel in non-reduced conditions, transferred to PVDF membrane and probed with antibodies against CD63 (ThermoFisher, 10628D), followed by HRP-conjugated secondary antibodies. Chemiluminescent signals were obtained with Super Signal West Femto substrate (Thermo Scientific Pierce 34,095) and detected using a BioSpectrum 600 imaging system and quantified using VisionWorks Version 6.6A software (UVP; Upland, Calif.). […] Inhibition of nSMase2 activity in cell extracts of confluent tau biosensors was confirmed by nSMase2 activity assay analogous to the one described in Example 2.
Our analysis confirmed that nSMase2 inhibitors suppress release of EVs from P2-seeded tau biosensor cells. […] EV samples purified from the same number of donor cells were analyzed per each group. Purified EVs were imaged by transmission electron microscopy (FIG. 5C). Size distribution of particles in the samples were assessed by nanoparticle tracking analysis (FIG. 5D). WB analysis for exosome markers also confirmed decrease in the exosome-specific marker expression (FIG. 5E).
Donor cells were grown in medium with exosome-depleted FBS (ThermoFisher, A2720803) for 48 hours with or without compounds, cell culture medium was collected and EVs purified using ExoQuick-TC kit (SBI biosciences). For quality control, small amounts of purified EVs were fixed on a copper mesh in glutaraldehyde/paraformaldehyde solution, stained with 2% uranyl acetate solution and imaged on a JEOL 100CX electron microscope at 29,000 times magnification. […] Chemiluminescent signals were obtained with Super Signal West Femto substrate (Thermo Scientific Pierce 34095) and detected using a BioSpectrum 600 imaging system and quantified using VisionWorks Version 6.6A software (UVP; Upland, Calif.).

O=c1[nH]c(=S)[nH]c(-c2ccccc2)c1Cc1c(O)ccc2ccccc12 [cambinol]
tau seed transmission from donor cells to recipient cells ([1]; D+R model, flow cytometry (FIG. 4C)): restrained tau seed transmission from the donor cells to the recipient cells in a dose-dependent manner | pEC50 ([1]; Homo sapiens, HEK-293T, 48 h, 48-hour treatment, P2-seeded donor cells, FRET-positive aggregates in recipient cells, read-out: EC50, reduction of tau transfer from donor to recipient cells (D+R assay)): ~4.85 | FRET-positive tau aggregates, microscopy ([2]; 10 μM, imaged after 24 hrs, vs DMSO (FIG. 3A)): visibly decreased; also recorded: Decrease in the tau aggregation | FRET-positive signal (integrated FRET density), flow cytometry ([2]; 10 uM, sixty hours treatment (FIG. 3B)): significant decrease | levels of exosomal marker CD63 in cell medium EV fraction ([3]; 10 μM, 60 hours, Western blot (FIG. 3C)): Decrease | release of EVs from P2-seeded donor cells ([3]; 50 μM, 48 hours, nanoparticle tracking analysis): released less EVs; also recorded: more effective than the nSMase2 inhibitor GW4869
